Calls of active or inactive are those of the source.
What was measured:
Cytochrome P450 1A2 = target: T1, Cytochrome P450 1A2 (Homo sapiens, UniProt P05177);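 further: PubChem cytochrome P450 panel assay, CYP1A2 panel member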
T1 sequence (P05177 whole entry): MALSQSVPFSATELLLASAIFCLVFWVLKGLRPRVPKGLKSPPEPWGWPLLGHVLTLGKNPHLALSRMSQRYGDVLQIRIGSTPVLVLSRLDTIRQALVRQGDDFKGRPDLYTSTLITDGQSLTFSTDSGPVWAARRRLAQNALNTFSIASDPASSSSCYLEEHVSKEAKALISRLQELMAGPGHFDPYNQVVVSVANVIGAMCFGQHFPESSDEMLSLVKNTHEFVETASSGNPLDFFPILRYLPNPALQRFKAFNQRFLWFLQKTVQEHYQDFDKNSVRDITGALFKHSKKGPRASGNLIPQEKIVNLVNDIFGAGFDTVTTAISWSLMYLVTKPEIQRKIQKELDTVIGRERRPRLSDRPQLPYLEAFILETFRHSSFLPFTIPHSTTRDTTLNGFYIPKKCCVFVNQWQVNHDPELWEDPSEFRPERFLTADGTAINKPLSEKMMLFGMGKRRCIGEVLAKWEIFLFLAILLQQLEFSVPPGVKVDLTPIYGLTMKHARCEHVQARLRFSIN

[1] = target: T2, Heat shock factor protein 1 (Mus musculus, UniProt P38532); assay: inhibition of MG132-induced HSE-luciferase signal, confirmation, cell-based, NIH3T3, luminescence, dose retest (AID 2382); type: functional;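 further: NIH3T3 fibroblasts with HSF1-driven luciferase reporter stressed by proteasome inhibitor MG132; luminescence from HSF1-driven luciferase expression after 8 hours of MG132 stress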
T2 sequence (P38532 whole entry): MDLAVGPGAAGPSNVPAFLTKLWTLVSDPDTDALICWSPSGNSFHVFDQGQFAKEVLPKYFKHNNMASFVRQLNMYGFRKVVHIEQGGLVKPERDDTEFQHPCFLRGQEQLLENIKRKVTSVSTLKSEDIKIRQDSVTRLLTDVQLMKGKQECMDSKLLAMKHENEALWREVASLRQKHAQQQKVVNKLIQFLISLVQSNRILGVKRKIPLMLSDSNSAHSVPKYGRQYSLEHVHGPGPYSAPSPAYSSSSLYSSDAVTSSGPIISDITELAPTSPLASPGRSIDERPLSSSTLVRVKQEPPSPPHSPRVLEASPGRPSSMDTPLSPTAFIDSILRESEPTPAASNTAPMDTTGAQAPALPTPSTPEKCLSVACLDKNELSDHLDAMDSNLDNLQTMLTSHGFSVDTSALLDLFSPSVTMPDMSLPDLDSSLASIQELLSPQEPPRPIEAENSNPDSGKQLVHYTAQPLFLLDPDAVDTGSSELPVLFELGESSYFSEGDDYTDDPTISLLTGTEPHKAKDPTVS

Cytochrome P450 2C19 = Cytochrome P450 2C19 (Homo sapiens, UniProt P33261); assay: Cytochrome panel assay with activity outcomes. Panel member name: p450-cyp2c19 Compounds with AC50 equal or less than 10 uM are considered active; type: functional
[2] = inhibitors of intracellular T. cruzi replication, confirmation, NIH3T3 host cells, beta-gal luminescence (AID 2044); type: functional, cell-based;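 further: intracellular parasites grown in NIH/3T3 mouse fibroblasts as host cells; luminescent beta-galactosidase reporter signal from transgenic T. cruzi replicating inside host cells; inhibitors lower the luminescence signal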
[3] = cytotoxicity toward NIH3T3 fibroblasts, dose response, counter-screen, cell-based, ATP luminescence, mouse fibroblasts (AID 2010); type: functional;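 further: cells exposed to compound for about 90 hours before reading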
[4] = HEp-2 cell cytotoxicity, dose response, cytotoxicity control for RSV inhibitor project, HTS (AID 2410); type: functional; conditions: human respiratory syncytial virus
[5] = system: Streptococcus sp. 'group A'; assay: growth inhibition of control SK(-) GAS strain, dose response, counter-screen for streptokinase expression inhibitor project, luminescence, kanamycin, BacTiterGlo, confirmation (AID 1900); type: functional, organism-based
Streptococcus = assay: Group A Streptococcus viability loss, dose response, counter-screen for streptokinase expression inhibitor project, luminescence, BacTiterGlo (AID 1915); type: functional, organism-based;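 further: potency for reduction of bacterial viability or growth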

Chain of Cytochrome P450 2C19 (P33261 whole entry): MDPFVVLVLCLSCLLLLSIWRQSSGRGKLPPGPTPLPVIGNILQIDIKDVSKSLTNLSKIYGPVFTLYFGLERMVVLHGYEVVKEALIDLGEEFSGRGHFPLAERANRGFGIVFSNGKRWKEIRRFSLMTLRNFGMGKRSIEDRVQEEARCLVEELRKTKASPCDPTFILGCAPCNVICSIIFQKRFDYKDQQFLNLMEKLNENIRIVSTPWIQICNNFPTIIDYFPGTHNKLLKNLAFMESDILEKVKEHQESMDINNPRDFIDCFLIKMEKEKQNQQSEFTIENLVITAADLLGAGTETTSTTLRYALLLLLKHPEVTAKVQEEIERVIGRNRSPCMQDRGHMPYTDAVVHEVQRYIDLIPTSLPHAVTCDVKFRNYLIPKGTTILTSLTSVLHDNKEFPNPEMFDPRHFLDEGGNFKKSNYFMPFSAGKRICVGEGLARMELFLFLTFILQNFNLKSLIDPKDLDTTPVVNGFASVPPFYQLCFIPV

## C/C(=N\OC(=O)c1ccc(F)cc1)c1nccs1
Cytochrome P450 1A2
  AC50: 28.2 µM (inconclusive)

## O=C(CCCOc1ccccc1)Nc1nccs1
[1]
  EC50: > 195 µM (not active)

## Cc1ccc(C(=O)NNC(=O)C2CCCN(c3ncccn3)C2)cc1 (stereo not drawn)
Cytochrome P450 2C19; read-out: AC50
  AC50: 39.8 µM (inconclusive)

## Cc1ccc(-c2ccc(CCC(=O)O)n2CC2CCCO2)cc1 (stereo not drawn)
Cytochrome P450 2C19; read-out: AC50
  AC50: 14.1 µM (inconclusive)

## c1ccc(CCNc2nc(-c3ccncc3)cs2)cc1
[2]
  EC50: 1.8 µM (active)
[3]
  EC50: > 60 µM (not active)

## COC(=O)CCC(=O)NNC(=O)c1cccc(Br)c1
[1]
  EC50: > 195 µM (not active)

## COc1ccc(C(=O)NC(=S)N2CCNC(=O)C2CC(=O)OC(C)C)cc1 (stereo not drawn)
[1]
  EC50: > 195 µM (not active)

## O=C(Nc1ccc2c(c1)OCO2)C1CCN(C(=O)CSc2ncnc3ccccc23)CC1
[4]
  CC50: 41.4 µM (active)

## COC(=O)C1(C)C=C2C(=C(C)C(=O)C2C)CN1 (stereo not drawn)
Cytochrome P450 1A2
  AC50: 31.6 µM (inconclusive)

## Cc1cccc(-n2c(=O)c3c(n4cnnc24)-c2ccccc2CC32CCCCC2)c1
Cytochrome P450 1A2
  AC50: 22.4 µM (inconclusive)

## Fc1ccccc1N1CCN(Cc2cc(-c3ccccc3)on2)CC1
[1]
  EC50: > 195 µM (not active)

## O=[N+]([O-])c1nn(-c2ccc3c(c2)OCCO3)[n+]([O-])c1NC1CCN(Cc2ccccc2)CC1
[2]
  EC50: 0.163 µM (active)
[3]
  EC50: > 60 µM (not active)

## C#C[C@@]1(O)CC[C@@H]2[C@@H]3CCC4=CC(=O)CC[C@@]4(C)[C@H]3CC[C@]21C
Cytochrome P450 2C19; read-out: AC50
  AC50: 0.501 µM (inconclusive)

## CCN(Cc1ccncc1)C(=O)c1cc(COc2ccc(C)c(C)c2)on1
[2]
  EC50: 1.07 µM (active)
[3]
  EC50: > 60 µM (not active)

## Cc1ccc(SCCNC(=O)c2ccc(C)c(S(=O)(=O)Nc3ccccc3C)c2)cc1
Cytochrome P450 1A2
  AC50: 14.1 µM (inconclusive)

## CCCCc1ccc(NC(S)=NCc2cccc(OC)c2)cc1
[2]
  EC50: 3.51 µM (active)
[3]
  EC50: > 60 µM (not active)

## CNC(=O)/C(C#N)=C/c1ccc(-c2ccc(OC)cc2[N+](=O)[O-])o1
[1]
  EC50: > 195 µM (not active)

## COC(=O)c1ccc(OC)c(CN2CCCN(Cc3cc(C)ccc3C)S2(=O)=O)c1
[2]
  EC50: 1.11 µM (active)
[3]
  EC50: > 60 µM (not active)

## CCCOc1ccc(N2C(=O)CC(SC(=N)N3N=C(c4ccccc4)CC3c3ccccc3)C2=O)cc1 (stereo not drawn)
[2]
  EC50: 2.05 µM (active)
[3]
  EC50: > 60 µM (not active)

## Cn1cc(Cl)c(-c2nnc(S)n2-c2ccc(F)cc2)n1
[1]
  EC50: > 195 µM (not active)

## c1cc2c(cc1C1CCCN1)OCCCO2 (stereo not drawn)
[1]
  EC50: > 195 µM (not active)

## COc1cccc(-c2cc(NCc3cccs3)ncn2)c1
Cytochrome P450 2C19; read-out: AC50
  AC50: 25.1 µM (inconclusive)

## Cc1ccc2oc(-c3cccc(NC(=S)NC(=O)/C=C/c4ccco4)c3)nc2c1
Cytochrome P450 1A2
  AC50: 3.55 µM (inconclusive)

## CCC1CCc2sc(C(=O)NCC(c3ccc(OC)cc3)N3CCCC3)cc2C1 (stereo not drawn)
[2]
  EC50: 1.83 µM (active)
[3]
  EC50: > 60 µM (not active)

## CCN(c1ccccc1)S(=O)(=O)c1ccc(Cl)c(NC(=O)CN2CCCCCC2)c1
[2]
  EC50: 1.04 µM (active)
[3]
  EC50: > 60 µM (not active)

## Cc1cccn2cc(-c3cccc(S(=O)(=O)N4CC(C)OC(C)C4)c3)nc12 (stereo not drawn)
[4]
  CC50: 44.6 µM (active)

## O=c1c(-c2ccc(F)cc2)nc2cnc(Nc3ccccc3)nc2n1Cc1cccs1
Cytochrome P450 1A2
  AC50: 2 µM (inconclusive)

## Cc1c(Cl)ccc2c(C(=O)Nc3cc(C(C)(C)C)on3)cc(-c3ccccn3)nc12
[2]
  EC50: 1.95 µM (active)
[3]
  EC50: > 60 µM (not active)

## COc1cccc(Cn2c(=O)c(-c3ccc(F)cc3)nc3cnc(N4CCOCC4)nc32)c1
Cytochrome P450 2C19
  AC50: inconclusive

## CC(C)Oc1ccc(C(=O)O)cc1
[1]
  EC50: 69.4 µM (active)

## Brc1ccc2ncnc(Nc3cccc4ccccc34)c2c1
Cytochrome P450 2C19; read-out: AC50
  AC50: 2.82 µM (inconclusive)

## COc1cc(NC(=O)COC(=O)/C=C/c2c(C)nn(-c3ccc(F)cc3)c2Cl)cc(OC)c1
[2]
  EC50: 0.691 µM (active)
[3]
  EC50: > 60 µM (not active)

## Fc1ccc(Cn2c(SCc3ccc(F)c(F)c3)nnc2C(F)(F)F)cc1
Cytochrome P450 1A2
  AC50: 17.8 µM (inconclusive)

## O=C(NC(NC(=S)Nc1cc(Cl)ccc1Cl)C(Cl)(Cl)Cl)c1ccco1 (stereo not drawn)
Cytochrome P450 1A2
  AC50: 12.6 µM (inconclusive)

## O=C(c1ccccc1)c1sc(N2CCCCCC2)nc1-c1ccccc1
[4]
  CC50: 31.1 µM (active)

## CCCCOc1ccccc1C1C(C(=O)OC)=C(C)N(C)C(C)=C1C(=O)OC
[4]
  CC50: > 50 µM (active)

## COc1ccc(NC(=S)N2CCN(C/C=C/c3ccccc3)CC2)cc1OC
Cytochrome P450 1A2
  AC50: 28.2 µM (inconclusive)
Cytochrome P450 2C19; read-out: AC50
  AC50: 15.8 µM (inconclusive)

## Cc1c(C(=O)NC(=S)NCc2cccnc2)oc2ccccc12
[2]
  EC50: 1.93 µM (active)
[3]
  EC50: > 60 µM (inconclusive)

## SC(COCc1ccccc1)CN1CCN(Cc2ccc3c(c2)OCO3)CC1 (stereo not drawn)
[2]
  EC50: 2.1 µM (active)
[3]
  EC50: > 60 µM (not active)

## CCOC(=O)N1CCN(C(=O)c2ccc3c(c2)NC(=O)/C(=C/c2ccccc2)S3)CC1
[5]
  EC50: 1.48 µM (active)
Streptococcus
  EC50: 4.42 µM (active)

## O=C(O)c1cccnc1SCC(=O)N1CCCCCC1
Cytochrome P450 2C19
  AC50: inconclusive

## CSc1nc2ccc(NS(=O)(=O)c3ccc([N+](=O)[O-])cc3)cc2s1
[1]
  EC50: > 195 µM (not active)

## COc1ccc(CN(Cc2cccnc2)S(=O)(=O)c2ccc(-n3cnnn3)c(C)c2)cc1OC
[2]
  EC50: 2.19 µM (active)
[3]
  EC50: > 30 µM (not active)

## CCOC(=O)c1cnc2ccccc2c1Nc1ccc2c(c1)OCCO2
[1]
  EC50: 6 µM (active)

## O=C(c1cc(Cl)ccc1Cl)N1CCOCC1
[1]
  EC50: > 195 µM (not active)

## O=c1c(-c2ccccc2)nc2cncnc2n1C1CC1
Cytochrome P450 2C19; read-out: AC50
  AC50: 3.16 µM (inconclusive)

## O=C(Nc1ccccc1)N1CCSc2cc(Cl)ccc21
Cytochrome P450 1A2
  AC50: 3.55 µM (inconclusive)

## CCCC(C)n1nc(O)c2c1NC(=O)CSC2c1ccc(OC)c(OC)c1 (stereo not drawn)
[1]
  EC50: > 195 µM (not active)

## CN1CCC(OC(=O)c2ccccc2)CC1
[2]
  EC50: 0.263 µM (active)
[3]
  EC50: 58.6 µM (active)

## COC(=O)c1ccc(/C=C/c2ccc3cccc(OC(C)=O)c3n2)cc1
[5]
  EC50: 2.08 µM (active)
Streptococcus
  EC50: 8.49 µM (active)

## CCOC(=O)N1CCN(c2cc(N)c([N+](=O)[O-])cc2F)CC1
[4]
  CC50: > 50 µM (active)

## Cc1ccc(S(=O)(=O)N(CC(=O)N2CCc3ccccc3C2)c2ccc(Cl)c(Cl)c2)cc1
[1]
  EC50: > 195 µM (not active)

## Cc1ccc(C(=O)C[n+]2cccc3cc(C)ccc32)cc1
[2]
  EC50: 11.2 µM (active)
[3]
  EC50: > 60 µM (inconclusive)

## CC1CN(C(=O)COc2ncnc3ccccc23)CC(C)O1 (stereo not drawn)
Cytochrome P450 2C19; read-out: AC50
  AC50: 39.8 µM (inconclusive)

## C[C@@H](C(=O)OC1C[C@H]2CC[C@@H](C1)N2C)c1ccc(Br)cc1 (stereo partly drawn)
Cytochrome P450 1A2
  AC50: 39.8 µM (inconclusive)

## CSc1nc(-c2ccc(C)cc2)nc(N)c1C#N
[4]
  CC50: 49.6 µM (active)

## O=C(c1ccc(Cn2c(=S)[nH]c3ccc(N4CCOCC4)cc3c2=O)cc1)N1CCN(c2ccc(F)cc2)CC1
[2]
  EC50: 0.583 µM (active)
[3]
  EC50: > 60 µM (not active)

## Cc1ccc(C(C(=O)NCc2ccco2)N(C(=O)CNC(=O)c2cccs2)c2ccc(C)cc2)cc1 (stereo not drawn)
Cytochrome P450 2C19; read-out: AC50
  AC50: 2.51 µM (inconclusive)

## CCc1ccccc1NC(=O)NC1CC2CCC(C1)N2Cc1cccs1 (stereo not drawn)
Cytochrome P450 2C19; read-out: AC50
  AC50: 17.8 µM (inconclusive)

## C/C(=N/NC(N)=S)c1ccc(Br)s1
[2]
  EC50: 2.07 µM (active)
[3]
  EC50: > 60 µM (not active)

## CCN(CC)CCCNC(=O)c1oc2ccc(S(=O)(=O)N3CC(C)CC(C)C3)cc2c1C (stereo not drawn)
[2]
  EC50: 0.422 µM (active)
[3]
  EC50: > 30 µM (not active)

## C/C(Cn1cnc([N+](=O)[O-])n1)=N\NC(=O)c1cccc(F)c1
[2]
  EC50: 1.39 µM (active)
[3]
  EC50: > 60 µM (not active)

## Brc1ccc(-c2csc(N/N=C/c3cccnc3)n2)cc1
[2]
  EC50: 1.44 µM (active)
[3]
  EC50: > 60 µM (not active)

## COc1cc(/C=N/NC(=O)c2cc(-c3cccc(Br)c3)nc3ccccc23)cc(OC)c1O
[4]
  CC50: 36 µM (active)

## CN/C(=N/CCSCc1nc[nH]c1C)NC#N [CIMETIDINE]
Cytochrome P450 1A2
  AC50: 50.1 µM (inconclusive)

From ChEMBL document CHEMBL1201862, “PubChem BioAssay data set” (2004)
